System: C26 cells
Test: Metabolic activity of C26 cells after fatty acid pre-incubation and chemotherapy incubation
Type: cell-based, Murine
Details: 4 days pre-incubation with 50 µM fatty acid, medium removed, compared to control, p< 0.0001 for EPA or DPA
Experimental: C = mice receiving control diet B, TB = tumor-bearing mice receiving control diet, TB-SNC = tumor-bearing mice receiving the specific nutritional combination.
Prior to chemotherapy incubations, C26 cells were pre-incubated for 4 days with EPA, DHA or DPA in a final concentration of 50 µM. To avoid direct interaction between fatty acids and chemotherapeutics, the medium containing fatty acids was removed before the addition of chemotherapy. The cells were incubated for 24 hr with the chemotherapeutics cisplatin and doxorubicin, after incubation the metabolic activity was measured.

With CC/C=C\C/C=C\C/C=C\C/C=C\C/C=C\C/C=C\CCC(=O)O [DHA, docosahexanoic acid] the “metabolic activity after cisplatin treatment” value (then 24 hr cisplatin) was “no significant changes in metabolic activity” and the “metabolic activity of doxorubicin treated cells” value (then 24 hr doxorubicin) was “no significant changes in metabolic activity”.
